Here are results for 10 molecules from ChEMBL document CHEMBL1201862, “PubChem BioAssay data set” (2004).

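The compound was tested at five concentrations on cells cultured in 96-well plates, with a 48-hour exposure period. Abbreviation: GI50, concentration required for 50% inhibition of growth.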 Calls of active or inactive are those of the source. Rule as the data show it: active = GI50 up to about 1.1 µM and inactive = higher.

Some test systems named below: HCT-116; OVCAR-8; PC-3; SNB-75; A549; Hs-578T; SR; U-251; SK-MEL-28; HCC 2998; A498; NCI-H23; UACC-62; LOX IMVI; NCI-H522; SK-OV-3; SN12C; SF-295; MOLT-4; NCI/ADR-RES.
Holding throughout (test): NCI anticancer screen, dose series, 48 h

With `COc1ccc(CCNC(=O)Cc2cc(OC)c(OC)cc2CO)cc1OC`, the GI50 in the assay with HCT-116, in the assay with OVCAR-8, in the assay on PC-3, in the assay with SNB-75, with A549 and with Hs-578T was > 100 µM (inactive) each time. The GI50 with SR, in the assay with U-251, in the assay with SK-MEL-28, in the assay with HCC 2998, with A498 and in the assay on NCI-H23 was > 100 µM (inactive) in each case. For the same molecule, the GI50 in the assay with UACC-62, in the assay with LOX IMVI, in the assay on NCI-H522, with SK-OV-3, with SN12C and in the assay with SF-295 was > 100 µM (inactive) in each case. The GI50 in the assay with MOLT-4 and in the assay with NCI/ADR-RES was > 100 µM (inactive) in each case.
Take `CC1(C)CC[C@]2(C(=O)O)CC[C@]3(C)C(=CC[C@@H]4[C@@]5(C)C[C@H](O)[C@H](O)[C@@](C)(C(=O)O)[C@@H]5CC[C@]43C)[C@@H]2C1`: the GI50 with HCT-116, in the assay on OVCAR-8, in the assay with PC-3, in the assay on SNB-75, in the assay on A549 and in the assay on Hs-578T was > 100 µM (inactive) in each case. In addition, the GI50 with SR, in the assay on U-251, in the assay on SK-MEL-28, in the assay with HCC 2998, with A498 and with NCI-H23 was > 100 µM (inactive) throughout. Besides, the GI50 with UACC-62 was > 54.6 µM (inactive); in the assay with LOX IMVI it was > 100 µM (inactive); in the assay with NCI-H522, > 100 µM (inactive); with SK-OV-3, > 100 µM (inactive); in the assay with SN12C, > 100 µM (inactive); with SF-295, > 100 µM (inactive). Moreover, the GI50 in the assay with MOLT-4 and in the assay with NCI/ADR-RES was > 100 µM (inactive) each time.
For the molecule `O=C(/C(=C\I)c1ccccc1)c1ccccc1`, the GI50 was 11.6 µM (inactive) in the assay with HCT-116; 4.32 µM (inactive) in the assay on OVCAR-8; 2.71 µM (inactive) in the assay on PC-3; 9.42 µM (inactive) in the assay on SNB-75; 22.4 µM (inactive) in the assay on A549; 3.75 µM (inactive) with Hs-578T. Besides, the GI50 in the assay with SR was 8.18 µM (inactive); in the assay on U-251, 2.75 µM (inactive); in the assay with SK-MEL-28 it was 2.16 µM (inactive); with HCC 2998 it was 3.94 µM (inactive); with A498 it was 16.5 µM (inactive); with NCI-H23, 9.89 µM (inactive). Besides, the GI50 in the assay with UACC-62 is 3.26 µM (inactive); with LOX IMVI, 12.7 µM (inactive); with NCI-H522, 4.86 µM (inactive); in the assay on SK-OV-3, 17.1 µM (inactive); in the assay with SN12C, 18 µM (inactive); in the assay on SF-295, 16.9 µM (inactive). Moreover, the GI50 in the assay with MOLT-4 is 18.3 µM (inactive); in the assay with NCI/ADR-RES, 19.4 µM (inactive).
Take `COc1cccc2c1C(=O)c1ccc3cc(CCl)cc(O)c3c1C2=O`: the GI50 was 0.1 µM (active) in the assay on HCT-116; 0.228 µM (active) in the assay on OVCAR-8; 0.243 µM (active) with PC-3; 0.94 µM (active) with SNB-75; 0.414 µM (active) in the assay on A549; 0.362 µM (active) in the assay on Hs-578T. In addition, the GI50 was 0.04 µM (active) in the assay with SR; 0.366 µM (active) in the assay on U-251; 0.348 µM (active) with SK-MEL-28; 0.951 µM (active) in the assay on HCC 2998; 1.19 µM (inactive) in the assay with A498; 0.402 µM (active) with NCI-H23. In addition, the GI50 in the assay on UACC-62 was 0.202 µM (active); with LOX IMVI, 0.158 µM (active); in the assay with NCI-H522, 0.552 µM (active); in the assay on SK-OV-3 it was 1.19 µM (inactive); with SN12C, 0.163 µM (active); in the assay with SF-295, 0.314 µM (active). For the same molecule, the GI50 is 0.238 µM (active) with MOLT-4 and 0.353 µM (active) in the assay on NCI/ADR-RES.
Consider `COC(=O)CC(C#N)(OP1(=O)OC(c2ccccc2)C(C)N1C)c1ccccc1` (stereo not given), for which the GI50 in the assay on HCT-116 was 24.2 µM (inactive); in the assay on OVCAR-8 it was 22.8 µM (inactive); with PC-3, 37 µM (inactive); in the assay on SNB-75, 43.4 µM (inactive); in the assay with A549, 34.3 µM (inactive); in the assay on Hs-578T it was 30.3 µM (inactive). Further, the GI50 in the assay with SR is 25.9 µM (inactive); in the assay on U-251 it was 23.1 µM (inactive); with SK-MEL-28, 31.1 µM (inactive); in the assay on HCC 2998, 16.6 µM (inactive); in the assay on A498, 44.6 µM (inactive); with NCI-H23, 31.5 µM (inactive). Besides, the GI50 with UACC-62 is 19.8 µM (inactive); in the assay with LOX IMVI, 21 µM (inactive); with NCI-H522 it was 59 µM (inactive); in the assay on SK-OV-3 it was 40.5 µM (inactive); with SN12C, 29.6 µM (inactive); in the assay with SF-295 it was 42 µM (inactive). For the same molecule, the GI50 with MOLT-4 is 25.5 µM (inactive); in the assay on NCI/ADR-RES, 40.1 µM (inactive).
In the case of `CNc1ccccc1S(=O)(=O)c1ccccc1[N+](=O)[O-]`, the GI50 is 66.5 µM (inactive) in the assay with HCT-116; > 10 µM (inactive) in the assay with OVCAR-8; 52.4 µM (inactive) in the assay with PC-3; 52.4 µM (inactive) with SNB-75; 77.3 µM (inactive) in the assay on A549; 40.2 µM (inactive) with Hs-578T. In addition, the GI50 was > 100 µM (inactive) in the assay with SR; 69.7 µM (inactive) in the assay on U-251; 91 µM (inactive) with SK-MEL-28; > 100 µM (inactive) in the assay with HCC 2998; > 100 µM (inactive) in the assay with A498; 44.6 µM (inactive) in the assay on NCI-H23. In addition, the GI50 with UACC-62 was 48.8 µM (inactive); with LOX IMVI, 53 µM (inactive); in the assay with NCI-H522, 26 µM (inactive); in the assay on SK-OV-3, > 100 µM (inactive); in the assay with SN12C, 92.7 µM (inactive); with SF-295 it was 80.2 µM (inactive). Also, the results for the GI50 in the assay with MOLT-4 and in the assay with NCI/ADR-RES were 30.8 µM (inactive) and 45.5 µM (inactive), respectively.
As to `O=c1ccn(C2OC(CO)C(O)C2[Se]c2ccccc2)c(=O)[nH]1` (stereo not given), the GI50 in the assay with HCT-116, in the assay on OVCAR-8, with PC-3, with SNB-75, in the assay on A549 and with Hs-578T was > 100 µM (inactive) throughout. Moreover, the GI50 in the assay with SR is > 100 µM (inactive); in the assay on U-251, > 100 µM (inactive); in the assay on SK-MEL-28, > 100 µM (inactive); in the assay with HCC 2998 it was 92.3 µM (inactive); in the assay with A498, > 100 µM (inactive); with NCI-H23, > 100 µM (inactive). The GI50 is 0.353 µM (active) in the assay on UACC-62; > 100 µM (inactive) with LOX IMVI; 99.1 µM (inactive) in the assay on NCI-H522; > 100 µM (inactive) in the assay on SK-OV-3; > 100 µM (inactive) with SN12C; > 100 µM (inactive) with SF-295. The GI50 with MOLT-4 and in the assay on NCI/ADR-RES was > 100 µM (inactive) each time.
Consider `COC(=O)c1c(C(=O)OC)c2c3ccccc3n(C)c2c2c1c1ccccc1n2C`, for which the GI50 in the assay on HCT-116 is > 100 µM (inactive); in the assay with OVCAR-8, > 100 µM (inactive); in the assay on PC-3 it was 54.6 µM (inactive); in the assay with SNB-75, 25.8 µM (inactive); in the assay on A549, 65.2 µM (inactive); in the assay on Hs-578T it was > 100 µM (inactive). The GI50 is > 100 µM (inactive) in the assay with SR; 28.1 µM (inactive) in the assay on U-251; > 100 µM (inactive) in the assay with SK-MEL-28; > 100 µM (inactive) in the assay on HCC 2998; 95.1 µM (inactive) in the assay on A498; > 100 µM (inactive) in the assay on NCI-H23. Further, the GI50 in the assay on UACC-62 was > 100 µM (inactive); in the assay with LOX IMVI, > 100 µM (inactive); with NCI-H522, 58.1 µM (inactive); in the assay on SK-OV-3, 50.2 µM (inactive); in the assay on SN12C it was > 100 µM (inactive); in the assay on SF-295, 91.4 µM (inactive). For the same molecule, the GI50 in the assay on MOLT-4 and in the assay on NCI/ADR-RES was > 100 µM (inactive) each time.
For `COc1cccc(-c2nc(N)c(C#N)c3c2CCS(=O)(=O)c2ccc(C)cc2-3)c1`, the GI50 is 20 µM (inactive) in the assay with HCT-116; 26.1 µM (inactive) in the assay with OVCAR-8; 15.8 µM (inactive) with PC-3; 10.4 µM (inactive) with SNB-75; 11.6 µM (inactive) in the assay on A549; 13.3 µM (inactive) in the assay on Hs-578T. Besides, the GI50 was 1.26 µM (inactive) with SR; 36.6 µM (inactive) in the assay with U-251; > 78.5 µM (inactive) with SK-MEL-28; 17.6 µM (inactive) with HCC 2998; 30.1 µM (inactive) with A498; 43.1 µM (inactive) with NCI-H23. For the same molecule, the GI50 in the assay with UACC-62 was 17.7 µM (inactive); in the assay on LOX IMVI, 31.4 µM (inactive); in the assay on NCI-H522, 2.68 µM (inactive); with SK-OV-3 it was 46.7 µM (inactive); in the assay with SN12C, 44.4 µM (inactive); in the assay on SF-295, 23.6 µM (inactive). The GI50 is 22.9 µM (inactive) in the assay on MOLT-4 and 15.2 µM (inactive) in the assay on NCI/ADR-RES.
Consider `COC(=O)NCCc1n[nH]c2c1C(=O)C=C(Nc1ccccc1OC)C2=O`, for which the GI50 is 18.9 µM (inactive) in the assay on HCT-116; 13.6 µM (inactive) with OVCAR-8; 31.6 µM (inactive) in the assay with PC-3; 28.2 µM (inactive) with SNB-75; 41.2 µM (inactive) in the assay with A549; 28.4 µM (inactive) with Hs-578T. The GI50 with SR was 28.5 µM (inactive); with U-251, 24.8 µM (inactive); in the assay on SK-MEL-28, 38.4 µM (inactive); in the assay on HCC 2998, 17.7 µM (inactive); in the assay with A498 it was 31.7 µM (inactive); in the assay with NCI-H23, 16 µM (inactive). The GI50 in the assay on UACC-62 was 18.7 µM (inactive); in the assay with LOX IMVI it was 23 µM (inactive); in the assay with NCI-H522 it was 24.1 µM (inactive); with SK-OV-3 it was > 100 µM (inactive); in the assay on SN12C, 40.3 µM (inactive); with SF-295 it was 44.5 µM (inactive). The results for the GI50 in the assay with MOLT-4 and in the assay with NCI/ADR-RES were 21.8 µM (inactive) and 21.1 µM (inactive), respectively.
